Laboratory results as given in patent EP4603105A1, “PHARMACEUTICAL COMPOSITION CONTAINING CYCLIC COMPOUND HAVING SELECTIVE KRAS INHIBITORY EFFECT AGAINST HRAS AND NRAS” (CHUGAI SEIYAKU KABUSHIKI KAISHA, priority 2022, dated 2024).
Where a SMILES comes first, the peptide text is derived from it. Bridges are numbered along the chain shown (N, C = ends). [ ]: non-standard residue; d: D form. The star is where a group is joined. hPhe(3-Cl-4-CF3) = N[C@@H](CCc1ccc(C(F)(F)F)c(Cl)c1)C(=O)O; NEtPhe(4-CF3) = CCN[C@@H](Cc1ccc(C(F)(F)F)cc1)C(=O)O; 3Oxa8azabicyclo(3.2.1)octane = C1CC2COCC1N2*; NEtPhe(4-Me) = CCN[C@@H](Cc1ccc(C)cc1)C(=O)O; NMeGly(cPent) = CN[C@H](C(=O)O)C1CCCC1; NMeD = CN[C@@H](CC(=O)O)C(=O)O; NMeL = CN[C@@H](CC(C)C)C(=O)O; Morpholide = C1CN(*)CCO1; NMeA = CN[C@@H](C)C(=O)O; Ac5c = NC1(C(=O)O)CCCC1; Aze = O=C(O)[C@@H]1CCN1; Sar = CNCC(=O)O

How the values were obtained:
[1] = target: HRAS wild-type protein (Homo sapiens, UniProt P01112); test: Binding to HRAS by surface plasmon resonance (SPR), KD and KD ratio to KRAS; conditions: ratio of KD for HRAS wild-type protein to KD for KRAS
Chain of HRAS wild-type protein (P01112 whole entry): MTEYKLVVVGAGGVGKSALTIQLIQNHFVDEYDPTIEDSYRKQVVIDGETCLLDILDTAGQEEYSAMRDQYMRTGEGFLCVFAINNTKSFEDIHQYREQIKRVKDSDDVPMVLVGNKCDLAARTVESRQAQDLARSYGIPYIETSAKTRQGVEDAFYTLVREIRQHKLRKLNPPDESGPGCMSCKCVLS
Procedure, shortened: (§1)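 Biotinylated GDP-bound RAS was captured at about 100–300 RU. Running buffer: HBS pH 7.4, 10 mM MgCl2, 10 µM GDP, 1 mM DTT, 0.01% Tween 20, 4% DMSO.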

[2] = system: human lung cancer strain NCI-H441; type: cell-based
Procedure, shortened: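 Step one: dispense the test compound in serial DMSO dilutions. Step three: add the reagent and measure […].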

[3] = target: GDP-bound NRAS wild-type protein (Homo sapiens, UniProt P01111); test: Binding to NRAS by surface plasmon resonance (SPR), KD and KD ratio to KRAS; conditions: ratio of KD for GDP-bound NRAS wild-type protein to KD for KRAS
Chain of GDP-bound NRAS wild-type protein (P01111 whole entry): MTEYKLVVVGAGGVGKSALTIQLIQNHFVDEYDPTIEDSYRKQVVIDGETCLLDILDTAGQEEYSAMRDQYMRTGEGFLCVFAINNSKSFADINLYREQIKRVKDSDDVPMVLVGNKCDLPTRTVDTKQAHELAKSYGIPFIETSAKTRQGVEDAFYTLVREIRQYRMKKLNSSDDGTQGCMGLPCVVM
Procedure, shortened: as §1

Row | SMILES | IC50 [2] [nM] | HRAS /KRAS [1] | NRAS /KRAS [3]
1 | CC[C@H](C)[C@@H]1NC(=O)[C@H](CC(C)C)N(C)C(=O)C[C@@H](C(=O)N2C3CCC2COC3)N(C)C(=O)[C@H](C2CCCC2)N(C)C(=O)C2(CCCC2)NC(=O)[C@@H]2CCCN2C(=O)[C@H](CCc2ccc(C(F)(F)F)c(Cl)c2)NC(=O)CN(C)C(=O)[C@H](Cc2ccc(C)cc2)N(CC)C(=O)CN(C)C(=O)CN(C)C1=O [PP0051] ([NMeL]I[Sar][Sar][NEtPhe(4-Me)][Sar][hPhe(3-Cl-4-CF3)]P[Ac5c][NMeGly(cPent)][NMeD]-{3Oxa8azabicyclo(3.2.1)octane}; lactam N-11) | 22.1 | C (A compound having a KD ratio of 0.1 or more and less than 3 is denoted as C) | C (A compound having a KD ratio of 0.1 or more and less than 3 is denoted as C)
2 | CCO[C@@H]1C[C@H]2C(=O)NC3(CCC3)C(=O)N(C)[C@@H](C3CCCC3)C(=O)N(CC)[C@H](C(=O)N(C)C)CC(=O)N(C)[C@@H](CC)C(=O)N[C@@H]([C@@H](C)CC)C(=O)N(C)CC(=O)N(C)[C@H]3C/C=C\CCN(C3=O)[C@@H](Cc3ccc(C(F)(F)F)cc3)C(=O)N(C)CC(=O)N[C@@H](CCc3cc(F)c(C(F)(F)F)c(F)c3)C(=O)N2C1 [PP0980] | 223 | B (a compound having 3 or more and less than 10 is denoted as B) | A (a compound having 10 or more and less than 20 is denoted as A)
3 | CC[C@H](C)[C@@H]1NC(=O)[C@H](CC(C)C)N(C)C(=O)C[C@@H](C(=O)N2CCOCC2)N(C)C(=O)[C@H](C2CCCC2)N(C)C(=O)C2(CCCC2)NC(=O)[C@@H]2CCCN2C(=O)[C@H](CCc2ccc(C(F)(F)F)c(Cl)c2)NC(=O)CN(C)C(=O)[C@H](Cc2ccc(C(F)(F)F)cc2)N(CC)C(=O)[C@@H]2CCN2C(=O)[C@H](C)N(C)C1=O [PP0002] ([NMeL]I[NMeA][Aze][NEtPhe(4-CF3)][Sar][hPhe(3-Cl-4-CF3)]P[Ac5c][NMeGly(cPent)][NMeD]-Morpholide; lactam N-11) | 2.1 | C (A compound having a KD ratio of 0.1 or more and less than 3 is denoted as C) | C (A compound having a KD ratio of 0.1 or more and less than 3 is denoted as C)
4 | CCO[C@@H]1C[C@H]2C(=O)NC3(CCC3)C(=O)N(C)[C@@H](C3CCCC3)C(=O)N(C)[C@H](C(=O)N(C)C)CC(=O)N(C)[C@@H](CC)C(=O)N[C@@H]([C@@H](C)CC)C(=O)N(C)CC(=O)N(C)[C@H]3CC=C(C)CN(C3=O)[C@@H](Cc3ccc(C(F)(F)F)cc3)C(=O)N(C)CC(=O)N[C@@H](CCc3cc(F)c(C(F)(F)F)c(F)c3)C(=O)N2C1 [PP0827] | 15.7 | C (A compound having a KD ratio of 0.1 or more and less than 3 is denoted as C) | C (A compound having a KD ratio of 0.1 or more and less than 3 is denoted as C)

More lines, main results first:

Row | IC50 [2] [nM] | SMILES | HRAS /KRAS [1] | NRAS /KRAS [3]
5 | 7.1 | CCO[C@@H]1C[C@H]2C(=O)NC3(CC(C)(C)C3)C(=O)N(C)[C@@H](C(CC)CC)C(=O)N(C)[C@H](C(=O)N(C)C)CC(=O)N(C)[C@H]3CCCC/C=C/c4ccc(cc4)C[C@@H](C(=O)N(C)CC(=O)N[C@@H](CCc4cc(F)c(C(F)(F)F)c(F)c4)C(=O)N2C1)N1CC/C=C\C[C@@H](C1=O)N(C)C(=O)CN(C)C(=O)[C@H]([C@@H](C)CC)NC3=O [PP3044] | A (a compound having 10 or more and less than 20 is denoted as A) | AA (a compound having 20 or more is denoted as AA)
6 | 7.6 | CCO[C@@H]1C[C@H]2C(=O)NC3(CCC3)C(=O)N(C)[C@@H](C3CCCC3)C(=O)N(C)[C@H](C(=O)N(C)CC)CC(=O)N(C)[C@@H](CC3CCC3)C(=O)N[C@@H]([C@@H](C)CC)C(=O)N(C)CC(=O)N(C)[C@H]3C/C=C\CCN(C3=O)[C@@H](Cc3ccc(C(F)(F)F)cc3)C(=O)N(C)CC(=O)N[C@@H](CCc3ccc(C(F)(F)F)c(OC)c3)C(=O)N2C1 [PP2825] | B (a compound having 3 or more and less than 10 is denoted as B) | A (a compound having 10 or more and less than 20 is denoted as A)
7 | 299 | CC[C@H](C)[C@@H]1NC(=O)[C@H](CC(C)C)N(C)C(=O)C[C@@H](C(=O)N2CCOCC2)N(C)C(=O)[C@H](C2CCCC2)N(C)C(=O)C2(CCC2)NC(=O)[C@@H]2[C@@H](OC)CCN2C(=O)[C@H](CCc2cc(F)c(C(F)(F)F)c(F)c2)NC(=O)CN(C)C(=O)[C@H](Cc2ccc(C(F)(F)F)cc2)N2CCCCC[C@@H](C2=O)N(C)C(=O)CN(C)C1=O [PP1067] | B (a compound having 3 or more and less than 10 is denoted as B) | B (a compound having 3 or more and less than 10 is denoted as B)
